Consider three compounds from US7732134B2, “Methods to predict cholesterol elevation during immunosuppressant therapy” (Novartis AG, priority 2002, dated 2010).

Data set [1] is described as follows: RAD B251 clinical trial: HDL cholesterol levels by IL-1β genotype and treatment group. It counts as in vivo, human. The note with it: last visit. The text has this: (§1) The RAD B251 study was a randomized, multicenter, double-blind, parallel group study of the efficacy and safety of everolimus (Certican™) (RAD) versus mycophenolate mofetil (MMF) used in combination with cyclosporine (CsA) (NEORAL®) and prednisone. The study consisted of three periods: a Screening period, a Baseline period and a Double-Blind Treatment period. Following the Baseline assessments, patients who meet the inclusion/exclusion criteria were randomized into one of the three treatment groups (1:1:1) once it has been ascertained that the allograft is functional and that oral medication can be tolerated (within 48 hours post-transplantation). Determination of allograft function was by the investigator's judgement and was based upon adequate urine output and evidence of falling creatinine levels. The day of randomization and administration of the first dose of study medication was recorded as Day 1 of the study. […]
(§2) A treatment period of three years followed transplantation. […] Renal biopsies were required at Baseline (may be intra-operative) and at the time of any suspected rejection. Blinded study drug administration ceased at 3 years.
(§3) Male and female patients, 16-65 years of age who are scheduled to undergo primary cadaveric, living unrelated or non-HLA identical related donor kidney transplantation, were allowed to enter the study. Patients who discontinued the study prematurely were not replaced. Each patient had to meet all of the inclusion/exclusion criteria to be eligible for entry into the study.
(§4) A total of 82 unique samples from the RAD B251 clinical trial were genotyped upon their consent to participate in the pharmacogenetic evaluation. This represents about 15% of the total population that participated in the RAD B251 clinical trial. Blood samples from each patient were collected at the individual trial sites and then shipped to Covance (Geneva, Switzerland). The genomic DNA of each patient was extracted from the blood by Covance using the PUREGENE™ DNA Isolation Kit (D-50K) (Gentra, Minneapolis, Minn.).
(§5) An analysis of covariance model was used for the analysis of the effect of genotype and treatment on cholesterol levels using the 24-month lab_b.sd2 RADB 251 clinical data set. Terms in the model include the final cholesterol level, the initial cholesterol level as the covariant, and the genotype and treatment as the main effectors. The odds ratios, 95% confidence limits, and Chi-square analysis were calculated where applicable. All statistical analyses were performed using the SAS 8.02 software. To correct for multiple testing, the Bonferroni correction method was performed.

Data set [2] is described as follows: RAD B251 clinical trial: LDL cholesterol levels by IL-1β genotype and treatment group. The note with it: last visit. It counts as in vivo, human.
Description: The RAD B251 study was a randomized, multicenter, double-blind, parallel group study of the efficacy and safety of everolimus (Certican™) (RAD) versus mycophenolate mofetil (MMF) used in combination with cyclosporine (CsA) (NEORAL®) and prednisone. The study consisted of three periods: a Screening period, a Baseline period and a Double-Blind Treatment period. Following the Baseline assessments, patients who meet the inclusion/exclusion criteria were randomized into one of the three treatment groups (1:1:1) once it has been ascertained that the allograft is functional and that oral medication can be tolerated (within 48 hours post-transplantation). Determination of allograft function was by the investigator's judgement and was based upon adequate urine output and evidence of falling creatinine levels. The day of randomization and administration of the first dose of study medication was recorded as Day 1 of the study. The three treatment groups are described below: • Dose Level 1: 0.75 mg RAD bid+NEORAL®+prednisone • Dose Level 2: 1.5 mg RAD bid+NEORAL®+prednisone • Comparator 1 g MMF bid+NEORAL®+prednisone Concomitant Therapy Initiation and Maintenance of NEORAL®
as §2, §3, §4, §5

Data set [3] is described as follows: RAD B251 clinical trial: total cholesterol levels by IL-1β genotype and treatment group. The note with it: for LS Mean Total Cholesterol Levels: RAD (1.5 and 3.0 mg/day), last visit; for odds ratio for increase in total blood cholesterol levels to a final concentration ≧240 mg/dL: RAD/NEORAL® regimen. Format: in vivo, human.
Description: as §1, with “Following the Baseline assessments, patients who meet the inclusion/exclusion criteria were randomized into one of the three treatment groups (1:1:1) once it has been ascertained that the allograft is functional and that oral medication can be tolerated (within 48 hours post-transplantation).” left out
as §2, §3
(The values on the figures, etc. refer to the absolute serum cholesterol levels at the last visit, however during the statistical analysis this value was defined as the dependent variable and the cholesterol level at baseline as the independent variable thus automatically taking into consideration the baseline level).
A total of 82 unique samples from the RAD B251 clinical trial were genotyped upon their consent to participate in the pharmacogenetic evaluation. This represents about 15% of the total population that participated in the RAD B251 clinical trial. Blood samples from each patient were collected at the individual trial sites and then shipped to Covance (Geneva, Switzerland).
An analysis of covariance model was used for the analysis of the effect of genotype and treatment on cholesterol levels using the 24-month lab_b.sd2 RADB 251 clinical data set. Terms in the model include the final cholesterol level, the initial cholesterol level as the covariant, and the genotype and treatment as the main effectors. The odds ratios, 95% confidence limits, and Chi-square analysis were calculated where applicable. All statistical analyses were performed using the SAS 8.02 software. To correct for multiple testing, the Bonferroni correction method was performed. […]

For a further data set, the system named is cholesterol biosynthesis. The note with it: See El-Omar et al.; cited from earlier work.
Setting [4] is: (−31) IL-1β CC genotype, MMF (2 mg/day).
Where [5] appears, read: (−31) IL-1β CT genotype, MMF (2 mg/day).
Where [6] appears, read: (−31) IL-1β TT genotype, MMF (2 mg/day).
The mark [7] stands for this setting: (−511) IL-1β CC genotype, MMF (2 mg/day).
[8] abbreviates: (−511) IL-1β CT genotype, MMF (2 mg/day).
[9] abbreviates: (−511) IL-1β TT genotype, MMF (2 mg/day).
Where [10] appears, read: (−31) IL-1β CC genotype, RAD (1.5 and 3.0 mg/day).
The mark [11] stands for this setting: (−31) IL-1β CT genotype, RAD (1.5 and 3.0 mg/day).
The mark [12] stands for this setting: (−31) IL-1β TT genotype, RAD (1.5 and 3.0 mg/day).
[13] abbreviates: (−511) IL-1β CC genotype, RAD (1.5 and 3.0 mg/day).
[14] abbreviates: (−511) IL-1β CT genotype, RAD (1.5 and 3.0 mg/day).
The mark [15] stands for this setting: (−511) IL-1β TT genotype, RAD (1.5 and 3.0 mg/day).

On to `COc1c(C)c2c(c(O)c1C/C=C(\C)CCC(=O)OCCN1CCOCC1)C(=O)OC2` [MMF, mycophenolate mofetil], for which the “LS Mean HDL levels” value in data set [1] (setting [4]) came to 50.4 mg/dL; in data set [1] (setting [5]) it was 56.8 mg/dL; in data set [1] (setting [6]) it was 45.5 mg/dL; in data set [1] (setting [7]), 45.5 mg/dL; in data set [1] (setting [8]) it was 56.8 mg/dL; in data set [1] (setting [9]), 50.4 mg/dL. In addition, the “LS Mean LDL Levels” value in data set [2] (setting [4]) was found to be 143.1 mg/dL; in data set [2] (setting [5]), 119.8 mg/dL; in data set [2] (setting [6]), 107.8 mg/dL; in data set [2] (setting [7]) it was 113.9 mg/dL; in data set [2] (setting [8]), 118.6 mg/dL; in data set [2] (setting [9]) it was 143.7 mg/dL.
For the compound `CO[C@H]1C[C@@H]2CC[C@@H](C)[C@@](O)(O2)C(=O)C(=O)N2CCCC[C@H]2C(=O)O[C@H]([C@H](C)C[C@@H]2CC[C@@H](OCCO)[C@H](OC)C2)CC(=O)[C@H](C)/C=C(\C)[C@@H](O)[C@@H](OC)C(=O)[C@H](C)C[C@H](C)/C=C/C=C/C=C/1C` [RAD, everolimus], the “LS Mean Total Cholesterol Levels” value is recorded as 291.1 mg/dL in data set [3] ((−31) IL-1β CC genotype); 240.4 mg/dL in data set [3] ((−31) IL-1β CT genotype); 216.6 mg/dL in data set [3] ((−31) IL-1β TT genotype); 217.3 mg/dL in data set [3] ((−511) IL-1β CC genotype); 242.9 mg/dL in data set [3] ((−511) IL-1β CT genotype); 290.3 mg/dL in data set [3] ((−511) IL-1β TT genotype). In addition, the “odds ratio for increase in total blood cholesterol levels to a final concentration ≧240 mg/dL” value in data set [3] (patients with a C at position (-31) in the IL-1β gene promoter (CC-CT vs TT)) was determined as 7.23; in data set [3] (patients with a T at position (-511) in the IL-1β gene promoter (CT-TT vs CC)), 5.67. The “LS Mean HDL levels” value in data set [1] (setting [10]) was 65.1 mg/dL; in data set [1] (setting [11]), 55 mg/dL; in data set [1] (setting [12]), 48.4 mg/dL; in data set [1] (setting [13]) it was 47.6 mg/dL; in data set [1] (setting [14]), 54.9 mg/dL; in data set [1] (setting [15]), 68.4 mg/dL. The “LS Mean LDL Levels” value in data set [2] (setting [10]) was 145.1 mg/dL; in data set [2] (setting [11]), 124.1 mg/dL; in data set [2] (setting [12]) it was 112.2 mg/dL; in data set [2] (setting [13]), 112.5 mg/dL; in data set [2] (setting [14]), 123.6 mg/dL; in data set [2] (setting [15]), 144.5 mg/dL.
For “IL-1β: interleukin-1-beta, cytokine reported to inhibit cholesterol biosynthesis”, in the data set with cholesterol biosynthesis, the “inhibition of cholesterol biosynthesis” value is recorded as 25%.
